We go through 20 compounds from patent publication US10106515B2, “1-(cyclopent-2-en-1-yl)-3-(2-hydroxy-3-(arylsulfonyl)phenyl)urea derivatives as CXCR2 inhibitors” (GLAXOSMITHKLINE INTELLECTUAL PROPERTY DEVELOPMENT LIMITED, priority 2014, dated 2018).

Structures can show the parent of a compound that is named as a salt.

The first assay deals with T1, recombinant human CXCR2 (Homo sapiens, UniProt P25025).
T1 construct: TEV protease site; Gal4-VP16 transcription factor
T1 sequence (P25025 1-360): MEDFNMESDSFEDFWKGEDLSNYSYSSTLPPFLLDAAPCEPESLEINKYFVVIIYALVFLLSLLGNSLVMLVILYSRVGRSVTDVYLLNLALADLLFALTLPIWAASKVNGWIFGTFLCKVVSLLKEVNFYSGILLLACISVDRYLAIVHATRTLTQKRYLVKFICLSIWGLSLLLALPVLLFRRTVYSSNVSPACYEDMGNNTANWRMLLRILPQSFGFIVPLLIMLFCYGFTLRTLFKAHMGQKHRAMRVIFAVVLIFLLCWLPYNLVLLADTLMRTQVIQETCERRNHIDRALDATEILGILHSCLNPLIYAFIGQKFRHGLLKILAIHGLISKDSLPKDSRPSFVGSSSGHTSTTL
The experiment in a line: CXCR2 Tango assay. It is filed as cell-based. The conditions noted are these: mean pIC50 of multiple test results; stimulated with 80 nM hCXCL1; reporter gene blue/green emission ratio; read-out: pIC50 (CXCR2 Tango assay) (converted). An excerpt:
The assay measures ligand-induced activation of the receptor CXCR2 in a stable cell line containing the recombinant human CXCR2 linked to a TEV protease site and a Gal4-VP16 transcription factor (Invitrogen). Ligand binding to the receptor results in the recruitment of arrestin proteins (tagged with protease) to the receptor and triggers the release of a tethered transcription factor. The transcription factor enters the nucleus and activates the transcription of the reporter gene. The ability of a compound to inhibit CXCR2 activation is indirectly assessed by measuring the reporter gene activity.
A vial of cryopreserved cells was removed from liquid nitrogen and rapidly thawed in a water bath at 37° C. with gentle agitation. The contents of the vial were transferred drop-wise into Thawing Medium in a sterile 15 ml conical tube and then centrifuged at 1000 rpm for 4-5 min. Then the cell pellets were resuspended in Assay Medium at a density of ˜200,000 cells/ml. All test compounds were dissolved in DMSO at a concentration of 10 mM and were prepared in 100% DMSO to provide 10 point dose response curves. A reference CXCR2 antagonist was added to wells in row 2, columns 1-5 & 7-11. Exemplified compounds 1-4, 7, 8-10, 13-22, 24-26, 28-30, 32, 33, 36, 37, 40, 42-44. 95-110, 115-118, 120, 121, 125, 126, 129-134, 137, 138, 140, 142, 147-149, 153-157, 159-162, 163-166, 168, 170, 172, 174-180 and 202 were tested using the CXCR2 antagonist sodium 3-chloro-6-(3-(2,3-dichlorophenyl)ureido)-2-sulfamoylphenolate as reference compound (Reference Compound 1) (published International patent application WO2002/079122). […] Test compounds were added to wells in row 2, columns 13-17 & 19-23 and rows 3-15, columns 1-5 & 7-11/13-17 & 19-23 (columns 6 and 18 as positive controls and un-stimulated controls respectively; columns 12 and 24 as cell-free control). Compounds in solution were added to the assay plate (Greiner 781090) using an Echo (Labcyte) concentration-response program (50 nl/well). The cell-free, un-stimulated and positive controls were loaded with 50 nl/well pure DMSO to ensure that the DMSO concentration was constant across the plate for all assays. Using Multi-drop Combi (Thermo) with standard cassette, 50 μl of Assay Medium was added to each well in the cell-free controls (columns 12 and 24); 50 μl of the cell suspension without hCXCL1 (a CXCR2 ligand) was added to each well in column 18 of the plate (˜10,000 cells per well); and 50 μl of the cell suspension with 80 nM hCXCL1 was added to the rest of wells of the plate (˜10,000 cells per well). The cells were incubated overnight at 37° C./5% CO2. 10 μl of 6× substrate mixture (LiveBLAzer™-FRET B/G substrate (CCF4-AM) Cat # K1096 from Invitrogen, Inc.) was added to each well using Multi-drop Combi (Thermo) with small-tube cassette and the plates incubated at room temperature for 2 h in the dark. The plate was finally read on EnVision using one excitation channel (409 nm) and two emission channels (460 nm and 530 nm).
The blue/green emission ratio (460 nm/530 nm) was calculated for each well, by dividing the background-subtracted Blue emission values by the background-subtracted Green emission values. The dose response curve was based on sigmoidal dose-response model. All ratio data was normalized based upon the maximum emission ratio of positive control (hCXCL1) and minimum emission ratio of negative control (DMSO) on each plate. The intrinsic activity (IA) of each compound would be the normalized percentage of its maximum response after curve fitting.
All exemplified compounds (except for Compounds 203 and 204) were tested in the CXCR2 Tango assay or a similar assay described above. The data mentioned below represents a mean pIC 50 value of multiple test results. It is understood that the data illustrated below may have reasonable variation depending on the specific conditions and procedures used by the person conducting the testing.
(In general: In a reporter assay the amount or activity of a reporter protein is the signal.)
On to `CC1=CCC[C@H]1NC(=O)Nc1ccc(Cl)c(S(=O)(=O)C2CCN(CC(F)F)CC2)c1O` [Compound 80, (R)-1-(4-chloro-3-((1-(2,2-difluoroethyl)piper-idin-4-yl)sulfonyl)-2-hydroxyphenyl)-3-(2-methylcyclopent-2-en-1-yl)urea trifluoroacetic acid salt], for which the IC50 is at most 10 nM. Same read-out and setting: as for `[2H]C1(S(=O)(=O)c2c(Cl)ccc(NC(=O)N[C@@H]3CCC=C3C)c2O)CCN(C2CCC2)CC1` [Compound 81, (R)-1-(4-chloro-3-((1-cyclobutylpiperidin-4-yl)sulfonyl)-2-hydroxyphenyl)-3-(2-methylcyclopent-2-en-1-yl)urea-d1, trifluoroacetic acid salt], the figure is at most 1 nM.

With `CC1=CCC[C@H]1NC(=O)Nc1ccc(Cl)c(S(=O)(=O)N2CC(F)C2)c1O` [Compound 86, (R)-1-(4-chloro-3-((3-fluoroazetidin-1-yl)sulfonyl)-2-hydroxyphenyl)-3-(2-methylcyclopent-2-en-1-yl)urea trifluoroacetic acid salt], the IC50 is at most 10 nM. Still for that read-out and setting: for `CC1=CCC[C@H]1NC(=O)Nc1ccc(Cl)c(S(=O)(=O)N2CC[C@@H](F)C2)c1O` [Compound 87, 1-(4-chloro-3-(((R)-3-fluoropyrrolidin-1-yl)sulfonyl)-2-hydroxyphenyl)-3-((R)-2-methylcyclopent-2-en-1-yl)urea, trifluoroacetic acid salt] the value was at most 10 nM. The same measure, in the same setting: as for `CC1=CCC[C@H]1NC(=O)Nc1ccc(Cl)c(S(=O)(=O)N2CCC(F)(F)C2)c1O` [Compound 88, (R)-1-(4-chloro-3-((3,3-difluoropyrrolidin-1-yl)sulfonyl)-2-hydroxyphenyl)-3-(2-methylcyclopent-2-en-1-yl)urea], the figure is at most 1 nM. The same measure, in the same setting: as for `CC1=CCC[C@H]1NC(=O)Nc1ccc(Cl)c(S(=O)(=O)N2CCC(O)CC2)c1O` [Compound 89, (R)-1-(4-chloro-2-hydroxy-3-((4-hydroxypiperidin-1-yl)sulfonyl)phenyl)-3-(2-methylcyclopent-2-en-1-yl)urea], the figure is at most 1 nM. Turning to `CC1=CCC[C@H]1NC(=O)Nc1ccc(Cl)c(S(=O)(=O)N2CCCCC2)c1O` [Compound 91, (R)-1-(4-chloro-2-hydroxy-3-(piperidin-1-ylsulfonyl)phenyl)-3-(2-methylcyclopent-2-en-1-yl)urea trifluoroacetic acid salt], the IC50 is at most 1 nM.

For the compound `CC1=CCCC1NC(=O)Nc1ccc(Cl)c(S(=O)(=O)[C@H]2C[C@@H](O)C2)c1O` (stereo partly drawn) [Compound 95, 1-(4-chloro-2-hydroxy-3-((cis-3-hydroxycyclobutyl)sulfonyl)phenyl)-3-(2-methylcyclopent-2-en-1-yl)urea], the IC50 is at most 1 nM. The same measure, in the same setting: for `CC1=CCCC1NC(=O)Nc1ccc(Cl)c(S(=O)(=O)[C@H]2C[C@H](N3CCCC3)C2)c1O` (some centres unmarked) [Compound 96, 1-(4-chloro-2-hydroxy-3-(((1r,3r)-3-(pyrrolidin-1-yl)cyclobutyl)sul-fonyl)phenyl)-3-(2-methylcyclopent-2-en-1-yl)urea, trifluoroacetic acid salt] the value was at most 10 nM; for `CC1=CCCC1NC(=O)Nc1ccc(Cl)c(S(=O)(=O)[C@H]2CC[C@H](N3CCC3)CC2)c1O` (some centres unmarked) [Compound 97, 1-(3-(((1r,4r)-4-(azetidin-1-yl)cyclohexyl)sulfonyl)-4-chloro-2-hydroxyphenyl)-3-(2-methylcyclopent-2-en-1-yl)urea trifluoroacetic acid salt], at most 10 nM. The same measure, in the same setting: as for `CC1=CCCC1NC(=O)Nc1ccc(Cl)c(S(=O)(=O)[C@H]2CC[C@H](N3CCCC3)CC2)c1O` (stereo partly drawn) [Compound 98, 1-(4-chloro-2-hydroxy-3-(((1R,4R)-4-(pyrrolidin-1-yl)cyclohexyl)sulfonyl)phenyl)-3-(2-methylcyclopent-2-en-1-yl)urea, trifluoroacetic acid salt], the figure is at most 1 nM. With `CC1=CCCC1NC(=O)Nc1ccc(Cl)c(S(=O)(=O)[C@H]2CCOC2)c1O` (stereo partly drawn) [Compound 99, 1-(4-chloro-2-hydroxy-3-(((S)-tetrahydrofuran-3-yl)sulfonyl)phenyl)-3-(2-methylcyclopent-2-en-1-yl)urea], the IC50 was at most 10 nM. Still for that read-out and setting: for `CC1=CCCC1NC(=O)Nc1ccc(Cl)c(S(=O)(=O)C(C)(C)C)c1O` (centres unmarked) [Compound 100, 1-(3-(tert-butylsulfonyl)-4-chloro-2-hydroxyphenyl)-3-(2-methylcyclopent-2-en-1-yl)urea] the value was at most 10 nM; for `CC1=CCCC1NC(=O)Nc1ccc(Cl)c(S(=O)(=O)C(C)(C)C(F)(F)F)c1O` (centres unmarked) [Compound 101, 1-(4-chloro-2-hydroxy-3-((1,1,1-trifluoro-2-methylpropan-2-yl)sulfonyl)phenyl)-3-(2-methylcyclopent-2-en-1-yl)urea], at most 1 nM; for `CC1=CCCC1NC(=O)Nc1ccc(Cl)c(S(=O)(=O)C(C)(C)c2ccccn2)c1O` (centres unmarked) [Compound 102, 1-(4-chloro-2-hydroxy-3-((2-(pyridin-2-yl)propan-2-yl)sulfonyl)phenyl)-3-(2-methylcyclopent-2-en-1-yl)urea, trifluoroacetic acid salt], at most 10 nM.

On to `CC1=CCCC1NC(=O)Nc1ccc(Cl)c(S(=O)(=O)C(C)(C)C2CCOCC2)c1O` (centres unmarked) [Compound 103, 1-(4-chloro-2-hydroxy-3-((2-(tetrahydro-2H-pyran-4-yl)propan-2-yl)sulfonyl)phenyl)-3-(2-methylcyclopent-2-en-1-yl)urea], for which the IC50 was at most 10 nM. For `CC1=CCCC1NC(=O)Nc1ccc(Cl)c(S(=O)(=O)C(C)(C)F)c1O` (centres unmarked) [Compound 105, 1-(4-chloro-3-((2-fluoropropan-2-yl)sulfonyl)-2-hydroxyphenyl)-3-(2-methylcyclopent-2-en-1-yl)urea], the IC50 was at most 10 nM. The same measure, in the same setting: as for `CC1=CCCC1NC(=O)Nc1ccc(Cl)c(S(=O)(=O)C(C)(F)F)c1O` (centres unmarked) [Compound 106, 1-(4-chloro-3-((1,1-difluoroethyl)sulfonyl)-2-hydroxyphenyl)-3-(2-methylcyclopent-2-en-1-yl)urea], the figure is at most 1 nM; as for `CC1=CCCC1NC(=O)Nc1ccc(Cl)c(S(=O)(=O)C2CCc3nccn3C2)c1O` (centres unmarked) [Compound 108, 1-(4-chloro-2-hydroxy-3-((5,6,7,8-etrahydroimidazo [1,2-a]pyridin-6-yl)sulfonyl)phenyl)-3-(2-methylcyclopent-2-en-1-yl)urea, trifluoroacetic acid salt], at most 10 nM.

The same assay, now with this note: pIC50 (CXCR2 Tango assay), mean pIC50 of multiple test results; stimulated with 80 nM hCXCL1; reporter gene blue/green emission ratio.
`CC1=CCC[C@H]1NC(=O)Nc1ccc(Cl)c(S(=O)(=O)C2CCN(C3CCC3)CC2)c1O` [Compound 83, (R)-1-(4-chloro-3-((1-cyclobutylpiperidin-4-yl)sulfonyl)-2-hydroxyphenyl)-3-(2-methylcyclopent-2-en-1-yl)urea trifluoroacetic acid salt]: the IC50 was at most 1 nM.
